# Laboratory results reported in US20250230193A1, “CYCLIC COMPOUND HAVING SELECTIVE KRAS INHIBITORY EFFECT ON HRAS AND NRAS” (CHUGAI SEIYAKU KABUSHIKI KAISHA, priority 2022, published 2025).
# *1 amine or outer side, *2 acyl side, *3 side chain or, on linkers, in order; H or OH if unused. Where a SMILES comes first, the peptide text is derived from it. Bridges are numbered along the chain shown (N, C = ends). [ ]: non-standard residue; d: D form. The star is where a group is joined. hPhe(3-Cl-4-CF3) = N[C@@H](CCc1ccc(C(F)(F)F)c(Cl)c1)C(=O)O; X12 = COCCN([C@@H](Cc1ccc(C)cc1)C(=O)[*:2])[*:1]; NMeGly(cPent) = CN[C@H](C(=O)O)C1CCCC1; NMeD = CN[C@@H](CC(=O)O)C(=O)O; NMeL = CN[C@@H](CC(C)C)C(=O)O; Morpholide = C1CN(*)CCO1; NMeA = CN[C@@H](C)C(=O)O; Ac5c = NC1(C(=O)O)CCCC1; Aze = O=C(O)[C@@H]1CCN1; Sar = CNCC(=O)O
# Assays:
# [1] = target: GDP-bound NRAS wild-type protein (Homo sapiens, UniProt P01111); experiment: Binding to NRAS by surface plasmon resonance (SPR), Single Cycle Kinetics; conditions: for NRAS/KRAS (ratio of KD value for NRAS to KD value for KRAS) / NRAS/KRAS (ratio of KD value with respect to NRAS to KD value with respect to KRAS): GDP-bound NRAS wild-type vs GDP-bound KRAS wild-type; for NRAS/KRAS (ratio of KD value with respect to GDP-bound NRAS wild-type protein to KD value with respect to KRAS): class symbols
# [2] = target: GDP-bound HRAS wild-type protein (Homo sapiens, UniProt P01112); experiment: Binding to HRAS by surface plasmon resonance (SPR), Single Cycle Kinetics; conditions: for HRAS/KRAS (ratio of KD value for HRAS to KD value for KRAS) / HRAS/KRAS (ratio of KD value with respect to HRAS to KD value with respect to KRAS): GDP-bound HRAS wild-type vs GDP-bound KRAS wild-type; for HRAS/KRAS (ratio of KD value with respect to GDP-bound HRAS wild-type protein to KD value with respect to KRAS): class symbols
# Chain of GDP-bound HRAS wild-type protein (P01112 whole entry): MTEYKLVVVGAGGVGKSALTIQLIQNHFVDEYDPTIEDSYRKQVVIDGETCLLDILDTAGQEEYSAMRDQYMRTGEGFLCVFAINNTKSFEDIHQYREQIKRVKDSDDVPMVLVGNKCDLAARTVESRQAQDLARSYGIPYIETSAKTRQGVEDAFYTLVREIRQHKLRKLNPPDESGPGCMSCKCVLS
# Chain of GDP-bound NRAS wild-type protein (P01111 whole entry): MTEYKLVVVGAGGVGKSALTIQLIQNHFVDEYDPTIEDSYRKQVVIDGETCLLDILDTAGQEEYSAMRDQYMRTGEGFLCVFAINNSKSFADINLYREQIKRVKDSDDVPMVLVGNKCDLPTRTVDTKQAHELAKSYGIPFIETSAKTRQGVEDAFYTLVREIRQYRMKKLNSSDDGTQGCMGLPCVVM
smiles,measurement,setting,value
CCO[C@@H]1C[C@H]2C(=O)NC3(CC(C)(C)C3)C(=O)N(C)[C@@H](C3CCCC3)C(=O)N3CCC[C@@H]3CC(=O)N(C)[C@@H](CC)C(=O)N[C@@H]([C@@H](C)CC)C(=O)N(C)CC(=O)N(C)[C@H]3C/C=C\CCN(C3=O)[C@@H](CC3CCCCC3)C(=O)N(C)CC(=O)N[C@@H](CCc3cc(F)c(C(F)(F)F)c(F)c3)C(=O)N2C1 [PP1620],NRAS/KRAS (ratio of KD value for NRAS to KD value for KRAS),[1]; SPR,B (a compound having 3 or more and less than 10 is denoted as B)
same,HRAS/KRAS (ratio of KD value for HRAS to KD value for KRAS),[2]; SPR,B (a compound having 3 or more and less than 10 is denoted as B)
CC[C@H](C)[C@@H]1NC(=O)[C@H](CC(C)C)N(C)C(=O)C[C@@H](C(=O)N2CCOCC2)N(C)C(=O)[C@H](C2CCCC2)N(C)C(=O)C2(CCCC2)NC(=O)[C@@H]2CCCN2C(=O)[C@H](CCc2ccc(C(F)(F)F)c(Cl)c2)NC(=O)CN(C)C(=O)[C@H](Cc2ccc(C)cc2)N(CCOC)C(=O)[C@@H]2CCN2C(=O)[C@H](C)N(C)C1=O [PP0092] ([NMeL]I[NMeA][Aze][X12][Sar][hPhe(3-Cl-4-CF3)]P[Ac5c][NMeGly(cPent)][NMeD]-Morpholide; lactam N-11),NRAS/KRAS (ratio of KD for GDP-bound NRAS wild-type to KD for KRAS),"[1]; KD ratio NRAS/KRAS, SPR",C (A compound having a KD ratio of 0.1 or more and less than 3 is denoted as C)
same,HRAS/KRAS (ratio of KD for GDP-bound HRAS wild-type to KD for KRAS),"[2]; KD ratio HRAS/KRAS, SPR",C (A compound having a KD ratio of 0.1 or more and less than 3 is denoted as C)
CCO[C@@H]1C[C@H]2C(=O)NC3(CC(C)(C)C3)C(=O)N(C)[C@@H](C(CC)CC)C(=O)N(C)[C@H](C(=O)N(C)C)CC(=O)N(C)[C@@H](COC)C(=O)N[C@@H]([C@@H](C)CC)C(=O)N(C3CC3)CC(=O)N(C)[C@H]3C/C=C\CCN(C3=O)[C@@H](CC3CCC(F)(F)CC3)C(=O)N(C)CC(=O)N[C@@H](CCc3ccc(Cl)c(Cl)c3)C(=O)N2C1 [PP2569],NRAS/KRAS (ratio of KD value with respect to GDP-bound NRAS wild-type protein to KD value with respect to KRAS),[1]; KD ratio NRAS/KRAS,AA (a compound having 20 or more is denoted as AA)
same,HRAS/KRAS (ratio of KD value with respect to GDP-bound HRAS wild-type protein to KD value with respect to KRAS),[2]; KD ratio HRAS/KRAS,A (a compound having 10 or more and less than 20 is denoted as A)
CCO[C@@H]1C[C@H]2C(=O)NC3(CCC3)C(=O)N(C)[C@@H](C3CCCC3)C(=O)N(C)[C@H](C(=O)N(C)C)CC(=O)N(C)[C@@H](CC)C(=O)N[C@@H]([C@@H](C)CC)C(=O)N(C)CC(=O)N(C)[C@H]3CCCCN(C3=O)[C@@H](Cc3ccc(C(F)(F)F)cc3)C(=O)N(C)CC(=O)N[C@@H](CCc3ccc(Cl)c(Cl)c3)C(=O)N2C1 [PP0987],NRAS/KRAS (ratio of KD value with respect to NRAS to KD value with respect to KRAS),[1]; SPR,C (A compound having a KD ratio of 0.1 or more and less than 3 is denoted as C)
same,HRAS/KRAS (ratio of KD value with respect to HRAS to KD value with respect to KRAS),[2]; SPR,C (A compound having a KD ratio of 0.1 or more and less than 3 is denoted as C)
CCO[C@@H]1C[C@H]2C(=O)NC3(CCC3)C(=O)N(C)[C@@H](C3CCCC3)C(=O)N(C)[C@H](C(=O)N3CCOCC3)CC(=O)N(C)[C@@H](COC)C(=O)N[C@@H]([C@@H](C)CC)C(=O)N(C)CC(=O)N(C)[C@H]3CCCCCN(C3=O)[C@@H](Cc3ccc(C(F)(F)F)cc3)C(=O)N(C)CC(=O)N[C@@H](CCc3ccc(C(F)(F)F)c(Cl)c3)C(=O)N2C1 [PP0849],NRAS/KRAS (ratio of KD value with respect to NRAS to KD value with respect to KRAS),[1]; SPR,B (a compound having 3 or more and less than 10 is denoted as B)
same,HRAS/KRAS (ratio of KD value with respect to HRAS to KD value with respect to KRAS),[2]; SPR,B (a compound having 3 or more and less than 10 is denoted as B)
CCO[C@@H]1C[C@H]2C(=O)NC3(CC(C)(C)C3)C(=O)N(C)[C@@H](C3CCCC3)C(=O)N(C)[C@H](C(=O)N(C)C)CC(=O)N(C)[C@H]3CCCC/C=C/c4ccc(cc4)C[C@@H](C(=O)N(C)CC(=O)N[C@@H](CCc4cc(F)c(C(F)(F)F)c(F)c4)C(=O)N2C1)N1CC/C=C\C[C@@H](C1=O)N(C)C(=O)CN(C)C(=O)[C@H]([C@@H](C)CC)NC3=O [PP1831],NRAS/KRAS (ratio of KD value for NRAS to KD value for KRAS),[1]; SPR,A (a compound having 10 or more and less than 20 is denoted as A)
same,HRAS/KRAS (ratio of KD value for HRAS to KD value for KRAS),[2]; SPR,A (a compound having 10 or more and less than 20 is denoted as A)
CCC[C@H]1C(=O)N[C@@H](CC(C)C)C(=O)N(C2CC2)CC(=O)N(C)[C@H]2C/C=C\CCN(C2=O)[C@@H](Cc2ccc(C)cc2)C(=O)N(C)CC(=O)N[C@@H](CCc2cc(F)c(C(F)(F)F)c(F)c2)C(=O)N2C[C@H](OCC)C[C@H]2C(=O)NC2(CCC2)C(=O)N(C)[C@@H](C2CCCC2)C(=O)N(C)[C@H](C(=O)N(C)C)CC(=O)N1C [PP2532],NRAS/KRAS (ratio of KD value with respect to GDP-bound NRAS wild-type protein to KD value with respect to KRAS),[1]; KD ratio NRAS/KRAS,A (a compound having 10 or more and less than 20 is denoted as A)
same,HRAS/KRAS (ratio of KD value with respect to GDP-bound HRAS wild-type protein to KD value with respect to KRAS),[2]; KD ratio HRAS/KRAS,B (a compound having 3 or more and less than 10 is denoted as B)
